Laboratory results: ChEMBL document CHEMBL1177707 (J Med Chem, 2010)

Columns and labels:
[1] = Inhibition of N-terminal His-tagged Mycobacterium tuberculosis H37Rv IMPDH; details: read-out: Ki(app)
[2] = molecular target: Inosine-5'-monophosphate dehydrogenase 1 (Homo sapiens, UniProt P20839); assay: Inhibition of human IMPDH1
[3] = molecular target: Inosine-5'-monophosphate dehydrogenase 2 (Homo sapiens, UniProt P12268); assay: Inhibition of human IMPDH2

Chain of Inosine-5'-monophosphate dehydrogenase 1 (P20839 whole entry): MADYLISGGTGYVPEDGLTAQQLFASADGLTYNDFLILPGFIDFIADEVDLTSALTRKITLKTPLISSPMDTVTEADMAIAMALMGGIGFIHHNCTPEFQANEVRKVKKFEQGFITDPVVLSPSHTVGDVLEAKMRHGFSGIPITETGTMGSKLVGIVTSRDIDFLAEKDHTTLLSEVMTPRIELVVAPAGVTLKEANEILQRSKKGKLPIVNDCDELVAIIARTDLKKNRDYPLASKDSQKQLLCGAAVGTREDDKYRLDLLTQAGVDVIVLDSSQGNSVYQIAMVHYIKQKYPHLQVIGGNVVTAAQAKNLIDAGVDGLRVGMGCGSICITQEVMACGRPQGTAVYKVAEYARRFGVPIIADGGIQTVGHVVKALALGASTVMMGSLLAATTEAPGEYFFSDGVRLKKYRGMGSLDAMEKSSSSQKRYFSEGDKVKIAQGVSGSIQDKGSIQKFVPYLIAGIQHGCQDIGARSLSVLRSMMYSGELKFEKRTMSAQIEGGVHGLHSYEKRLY

Structure (SMILES) | Ki [1] | Ki ([2]; read-out: Ki) | further results
COc1c(C)c2c(c(O)c1C/C=C(\C)CCC(=O)O)C(=O)OC2 [MYCOPHENOLIC ACID] | 62 µM |  | 
COc1c(C)c2c(c(O)c1CCn1cc(COC[C@H]3O[C@@H](n4cnc5c(N)ncnc54)[C@H](O)[C@@H]3O)nn1)C(=O)OC2 | > 100 µM | 1500 nM | Ki ([3]; read-out: Ki): 200 nM
COc1c(C)c2c(c(O)c1CCNCc1cn(C[C@H]3O[C@@H](n4cnc5c(N)ncnc54)[C@H](O)[C@@H]3O)nn1)C(=O)OC2 | > 100 µM | 14000 nM | Ki ([3]; read-out: Ki): 2200 nM
COc1c(C)c2c(c(O)c1CCOP(=O)(O)CP(=O)(O)OC[C@H]1O[C@@H](n3cnc4c(N)nc(-c5ccccc5)nc43)[C@H](O)[C@@H]1O)C(=O)OC2 | > 100 µM |  | 
COc1c(C)c2c(c(O)c1C/C=C(\C)Cn1cc(COC[C@H]3O[C@@H](n4cnc5c(N)ncnc54)[C@H](O)[C@@H]3O)nn1)C(=O)OC2 |  | 70 nM | 
COc1c(C)c2c(c(O)c1C/C=C(\C)COP(=O)(O)CP(=O)(O)OC[C@H]1O[C@@H](n3cnc4c(N)ncnc43)[C@H](O)[C@@H]1O)C(=O)OC2 | > 100 µM |  | Ki ([2]; read-out: Ki(app)): 520 nM; Ki ([3]; read-out: Ki(app)): 380 nM
CCc1nc(N)c2ncn([C@@H]3O[C@H](CNS(=O)(=O)CS(=O)(=O)NCCc4c(O)c5c(c(C)c4OC)COC5=O)[C@@H](O)[C@H]3O)c2n1 | > 100 µM |  | 
C#Cc1nc(N)c2ncn([C@@H]3O[C@H](CNS(=O)(=O)CS(=O)(=O)NCCc4c(O)c5c(c(C)c4OC)COC5=O)[C@@H](O)[C@H]3O)c2n1 | > 100 µM |  | 
COc1c(C)c2c(c(O)c1CCNS(=O)(=O)CS(=O)(=O)NC[C@H]1O[C@@H](n3cnc4c(N)nc(-c5ccccc5)nc43)[C@H](O)[C@@H]1O)C(=O)OC2 | > 100 µM |  | 
